Data: ChEMBL document CHEMBL2029208 (Bioorg Med Chem, 2012)
In brackets after ≈: the same amount, converted by molar mass.

Key:
[1] = biological target: T1, Bifunctional epoxide hydrolase 2 (Homo sapiens, UniProt P34913);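 further: recombinant enzyme with CMNPC substrate, fluorescence readout of 6-methoxy-2-naphthaldehyde formed over a 10 min reaction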
T1 sequence (P34913 whole entry): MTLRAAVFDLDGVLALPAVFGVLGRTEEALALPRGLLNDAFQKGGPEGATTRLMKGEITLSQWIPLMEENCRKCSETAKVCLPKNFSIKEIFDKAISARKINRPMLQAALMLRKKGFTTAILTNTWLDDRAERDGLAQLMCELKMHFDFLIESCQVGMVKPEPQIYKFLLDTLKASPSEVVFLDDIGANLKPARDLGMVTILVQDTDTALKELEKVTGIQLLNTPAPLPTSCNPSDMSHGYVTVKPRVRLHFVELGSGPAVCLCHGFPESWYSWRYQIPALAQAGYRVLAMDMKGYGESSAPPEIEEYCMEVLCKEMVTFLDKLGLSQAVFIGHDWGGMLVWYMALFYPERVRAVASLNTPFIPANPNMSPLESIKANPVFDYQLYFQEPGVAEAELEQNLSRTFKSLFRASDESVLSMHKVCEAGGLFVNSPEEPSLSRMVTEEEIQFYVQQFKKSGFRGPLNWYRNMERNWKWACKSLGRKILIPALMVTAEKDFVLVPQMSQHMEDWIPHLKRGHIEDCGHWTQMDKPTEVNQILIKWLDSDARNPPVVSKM

[2] = tested on: Mycobacterium tuberculosis; assay: microbe, parasite or virus in culture; type: functional; conditions: H37Ra

SMILES | IC50 [1] [nM] | MIC [2] [mg/L]
CC(C)c1ccc(NC(=O)NCC2CCCCC2)cc1 | 1.1 | 1.72 (≈ 6.27 µM)
O=C(NC12CC3CC(CC(C3)C1)C2)N[C@H]1CC[C@H](Oc2cccc(F)c2)CC1 | – | 14 (≈ 36.2 µM)
CCOC(=O)COc1ccc(NC(=O)NC23CC4CC(CC(C4)C2)C3)cc1 | 0.8 | 4.7 (≈ 12.6 µM)
O=C(Nc1cccc(OC(F)F)c1)NC12CC3CC(CC(C3)C1)C2 | 2.6 | 0.8 (≈ 2.38 µM)
O=C(Nc1ccc(OC(F)(F)F)cc1)NC1CCCCC1 | 0.8 | 0.94 (≈ 3.11 µM)
CCOCCOCCOc1ccc(C(OC(=O)CCCNC(=O)NC23CC4CC(CC(C4)C2)C3)c2ccccc2)cc1 (configuration not stated) | 5.1 | > 116
CN1CCN(CCCOc2ccc(NC(=O)NC34CC5CC(CC(C5)C3)C4)cc2)CC1 | – | 62 (≈ 145 µM)
CCCCOC(=O)CCCCCCCCCCCNC(=O)NC12CC3CC(CC(C3)C1)C2 | – | 5.61 (≈ 12.5 µM)
C=C(CCCNC(=O)NC12CC3CC(CC(C3)C1)C2)OCCOCCOCC | 67 | > 79
O=C(Nc1ccc(OCCOCCOCC(F)(F)F)cc1)NC12CC3CC(CC(C3)C1)C2 | 3.3 | 11 (≈ 24.1 µM)
CCCCCCc1ccc(NC(=O)NC2CCCCC2)cc1 | 1.8 | 1.89 (≈ 6.25 µM)
O=C(Nc1cccc(C(=O)N2CCOCC2)c1)NC12CC3CC(CC(C3)C1)C2 | – | > 77
O=C(NC12CC3CC(CC(C3)C1)C2)N[C@H]1CC[C@H](OCc2ccc(Br)cc2)CC1 | – | > 92
O=C(Nc1ccc(Oc2ccc(F)cc2)cc1)NC12CC3CC(CC(C3)C1)C2 | – | 0.6 (≈ 1.58 µM)
CC(=O)c1cccc(NC(=O)NC23CC4CC(CC(C4)C2)C3)c1 | 1.3 | 3.9 (≈ 12.5 µM)
CCc1ccc(OCCOCCOCCCCCNC(=O)NC23CC4CC(CC(C4)C2)C3)cc1 | – | 24 (≈ 50.8 µM)
CCOCCOCCOc1ccc(NC(=O)NC23CC4CC(CC(C4)C2)C3)cc1 | – | 10 (≈ 24.8 µM)
COC(=O)c1cccc(NC(=O)NC23CC4CC(CC(C4)C2)C3)c1 | – | 1.2 (≈ 3.65 µM)
COc1ccc(NC(=O)NC23CC4CC(CC(C4)C2)C3)cc1O | – | 32 (≈ 101 µM)
CC(=O)Oc1ccc(NC(=O)NC23CC4CC(CC(C4)C2)C3)cc1 | – | 66 (≈ 201 µM)
O=C(Nc1ccccc1OCCCN1CCOCC1)NC12CC3CC(CC(C3)C1)C2 | – | 21 (≈ 50.8 µM)
O=C(O)CCCc1ccc(NC(=O)NC23CC4CC(CC(C4)C2)C3)cc1 | – | 36 (≈ 101 µM)
O=C(NC12CC3CC(CC(C3)C1)C2)N[C@H]1CC[C@H](OCc2ccccc2)CC1 | – | > 77
CO[C@H]1CC[C@H](NC(=O)NC23CC4CC(CC(C4)C2)C3)CC1 | – | > 61
O=C(Nc1cccc(C(=O)N2CCC(N3CCOCC3)CC2)c1)NC12CC3CC(CC(C3)C1)C2 | – | > 93

SMILES | IC50 [1] [nM] | MIC [2] [mg/L]
O=C(Nc1cccc(Oc2ccc(F)cc2)c1)NC12CC3CC(CC(C3)C1)C2 | – | 2.5 (≈ 6.57 µM)
COc1ccccc1NC(=O)NC12CC3CC(CC(C3)C1)C2 | – | 30 (≈ 99.9 µM)
COc1ccc(NC(=O)NC23CC4CC(CC(C4)C2)C3)cc1 | – | 1.88 (≈ 6.26 µM)
O=C(Nc1ccc(OCCCCN2CCOCC2)cc1)NC12CC3CC(CC(C3)C1)C2 | – | 21 (≈ 49.1 µM)
COC(=O)c1ccc(NC(=O)NC23CC4CC(CC(C4)C2)C3)cc1 | – | 2 (≈ 6.09 µM)
O=C(Nc1ccccc1)NC12CC3CC(CC(C3)C1)C2 | – | 14 (≈ 51.8 µM)
O=C(NC12CC3CC(CC(C3)C1)C2)N[C@H]1CC[C@H](Oc2ccc(Br)cc2)CC1 | – | > 89
O=C(Nc1ccc(C(=O)O)cc1)N[C@H]1CC[C@@H](Oc2ccc(F)cc2)CC1 | – | 4.65 (≈ 12.5 µM)
CC(C)(C)OC(=O)N1CCN(CCCOc2ccc(NC(=O)NC34CC5CC(CC(C5)C3)C4)cc2)CC1 | – | 6.21 (≈ 12.1 µM)
O=C(Nc1cccc(OC(=O)c2ccccc2)c1)NC12CC3CC(CC(C3)C1)C2 | – | 2.4 (≈ 6.15 µM)
COC(=O)c1cc(NC(=O)NC23CC4CC(CC(C4)C2)C3)ccc1O | – | 1.1 (≈ 3.19 µM)
CO[C@H]1CC[C@@H](NC(=O)NC23CC4CC(CC(C4)C2)C3)CC1 | – | > 61
CCOCCOCCOc1cccc(NC(=O)NC23CC4CC(CC(C4)C2)C3)c1 | – | 2.52 (≈ 6.26 µM)
CCCCCCCOCCNC(=O)NC12CC3CC(CC(C3)C1)C2 | – | 2.1 (≈ 6.24 µM)
O=C(NC12CC3CC(CC(C3)C1)C2)N[C@H]1CC[C@H](O)CC1 | – | > 58
CC(C)Oc1cc(F)c(CO[C@H]2CC[C@H](NC(=O)NC34CC5CC(CC(C5)C3)C4)CC2)c(F)c1 | – | 11.9 (≈ 25 µM)
O=C(Nc1cccc(OCCCCN2CCOCC2)c1)NC12CC3CC(CC(C3)C1)C2 | – | 21 (≈ 49.1 µM)
O=C(Nc1ccc(OCCN2CCOCC2)cc1)NC12CC3CC(CC(C3)C1)C2 | – | > 30
COc1ccc(O[C@H]2CC[C@@H](NC(=O)NC34CC5CC(CC(C5)C3)C4)CC2)cc1 | – | > 80
CCCCOCCCCCNC(=O)NC12CC3CC(CC(C3)C1)C2 | – | 2.1 (≈ 6.24 µM)
O=C(NC12CC3CC(CC(C3)C1)C2)N[C@H]1CC[C@@H](Oc2cc(F)cc(F)c2)CC1 | – | 10 (≈ 24.7 µM)
CC(C)Oc1cc(F)c(CO[C@H]2CC[C@@H](NC(=O)NC34CC5CC(CC(C5)C3)C4)CC2)c(F)c1 | – | 6.7 (≈ 14.1 µM)
CCOC(=O)C(C)Oc1ccc(NC(=O)NC23CC4CC(CC(C4)C2)C3)cc1 (configuration not stated) | – | 19 (≈ 49.2 µM)
O=C(NC12CC3CC(CC(C3)C1)C2)N[C@H]1CC[C@H](OCCCN2CCOCC2)CC1 | – | > 42
O=C(NC12CC3CC(CC(C3)C1)C2)N[C@H]1CC[C@@H](OCc2c(F)cccc2F)CC1 | – | 42 (≈ 100 µM)

SMILES | IC50 [1] [nM] | MIC [2] [mg/L]
CN1CCN(CCCCOc2cccc(NC(=O)NC34CC5CC(CC(C5)C3)C4)c2)CC1 | – | 44 (≈ 99.9 µM)
CCOCCOCCOCCCCCNC(=O)NC12CC3CC(CC(C3)C1)C2 | – | > 79
CC(=O)Nc1ccc(NC(=O)NC23CC4CC(CC(C4)C2)C3)cc1 | – | 65 (≈ 199 µM)
CC(C)c1ccc(NC(=O)NC2CCCCC2)cc1 | – | 3.25 (≈ 12.5 µM)
O=C(Nc1ccc(OC(=O)c2ccccc2)cc1)NC12CC3CC(CC(C3)C1)C2 | – | 39 (≈ 99.9 µM)
COc1ccc(O[C@H]2CC[C@H](NC(=O)NC34CC5CC(CC(C5)C3)C4)CC2)cc1 | – | > 80
O=C(NC12CC3CC(CC(C3)C1)C2)N[C@H]1CC[C@@H](Oc2ccc(F)cc2)CC1 | – | > 20
O=C(Nc1ccc(-n2ccnc2)cc1)NC12CC3CC(CC(C3)C1)C2 | – | > 44
O=C(NCCCCOc1ccc(F)cc1)NC12CC3CC(CC(C3)C1)C2 | – | 2.25 (≈ 6.24 µM)
C[C@H](NC(=O)Cc1ccc(NC(=O)NC23CC4CC(CC(C4)C2)C3)cc1)C(=O)N[C@@H](Cc1c[nH]c2ccccc12)C(=O)O | – | 66 (≈ 113 µM)
CCC(=O)Oc1ccc(NC(=O)NC23CC4CC(CC(C4)C2)C3)cc1 | – | > 68
CCC(=O)Oc1cccc(NC(=O)NC23CC4CC(CC(C4)C2)C3)c1 | – | 17 (≈ 49.6 µM)
O=C(Nc1ccc(OC2CCOC2=O)cc1)NC12CC3CC(CC(C3)C1)C2 (configuration not stated) | – | > 37
O=C(NCC#CCOc1ccc(F)cc1)NC12CC3CC(CC(C3)C1)C2 | – | 0.7 (≈ 1.96 µM)
O=C(Nc1cccc(OCCCN2CCOCC2)c1)NC12CC3CC(CC(C3)C1)C2 | – | 32 (≈ 77.4 µM)
O=C(Nc1cccc(C(=O)NCCN2CCOCC2)c1)NC12CC3CC(CC(C3)C1)C2 | – | > 30
O=C(NC12CC3CC(CC(C3)C1)C2)N[C@H]1CC[C@H](Oc2ccc(F)cc2)CC1 | – | > 39
O=C(Nc1ccc(O)cc1)NC12CC3CC(CC(C3)C1)C2 | – | 57 (≈ 199 µM)
O=C(NC12CC3CC(CC(C3)C1)C2)N[C@H]1CC[C@H](Oc2cc(F)cc(F)c2)CC1 | – | > 41
O=C(Nc1cccc(C(=O)OCc2ccccc2)c1)NC12CC3CC(CC(C3)C1)C2 | – | 0.3 (≈ 0.742 µM)
O=C(Nc1ccccc1OCCCCN1CCOCC1)NC12CC3CC(CC(C3)C1)C2 | – | 21 (≈ 49.1 µM)
O=C(NC12CC3CC(CC(C3)C1)C2)N[C@H]1CC[C@H](OCC2CCCCC2)CC1 | – | > 78
CC(=O)c1ccccc1NC(=O)NC12CC3CC(CC(C3)C1)C2 | – | > 3.1
